What was measured:
Assay type in all cases: in vivo
Euschistus heros = assay: Activity against Euschistus heros (neotropical brown stink bug); conditions: 120 h, application rate 200 ppm, sprayed soybean leaves, N2 nymphs, 5 days after infestation, read-out: effect in at least one of the two categories (mortality or growth inhibition)
Method: Soybean leaves on agar in 24-well microtiter plates were sprayed with aqueous test solutions prepared from 10′000 ppm DMSO stock solutions. After drying the leaves were infested with N2 nymphs. The samples were assessed for mortality and growth inhibition in comparison to untreated samples 5 days after infestation.

Plutella xylostella = assay: Activity against Plutella xylostella (diamond back moth); conditions: 192 h, application rate 200 ppm, artificial diet, eggs, 8 days after infestation, read-out: effect in at least one of the two categories (mortality or growth inhibition)
Method: 24-well microtiter plates with artificial diet were treated with aqueous test solutions prepared from 10′000 ppm DMSO stock solutions by pipetting. After drying, Plutella eggs were pipetted through a plastic stencil onto a gel blotting paper and the plate was closed with it. The samples were assessed for mortality and growth inhibition in comparison to untreated samples 8 days after infestation. The following compounds gave an effect of at least 80% in at least one of the two categories (mortality or growth inhibition) at an application rate of 200 ppm: P2, P3, P4, P5, P6, P8, P13.

[1] = system: Frankliniella occidentalis; assay: Activity against Frankliniella occidentalis (western flower thrips); conditions: foliar, 168 h, application rate 200 ppm, sprayed sunflower leaf discs, mixed ages, 7 days after infestation
Method: Sunflower leaf discs were placed on agar in 24-well microtiter plates and sprayed with aqueous test solutions prepared from […] stock solutions. After drying the leaf discs were infested with a Frankliniella population of mixed ages. The samples were assessed for mortality 7 days after infestation.

Diabrotica balteata = assay: Activity against Diabrotica balteata (corn root worm); conditions: 96 h, application rate 200 ppm, sprayed maize sprouts, L2 larvae, 4 days after infestation, read-out: effect in at least one of the two categories (mortality or growth inhibition)
Method: Maize sprouts placed onto an agar layer in 24-well microtiter plates were treated with aqueous test solutions prepared from 10′000 ppm DMSO stock solutions by spraying. After drying, the plates were infested with L2 larvae (6 to 10 per well). The samples were assessed for mortality and growth inhibition in comparison to untreated samples 4 days after infestation.

[2] = system: Carpocapsa (Cydia) pomonella; assay: Activity against Carpocapsa (Cydia) pomonella (codling moth); conditions: 336 h, application rate 12.5 ppm, sprayed diet cubes, L1 larvae, 14 days after infestation
Method: Diet cubes coated with paraffin were sprayed with diluted test solutions in an application chamber. After drying off the treated cubes (10 replicates) were infested with 1 L1 larvae. Samples were incubated at 26-27° C. and checked 14 days after infestation for mortality and growth inhibition.

Myzus persicae [3] = assay: Activity against Myzus persicae (green peach aphid), systemic activity; conditions: 144 h, test rate 24 ppm, roots of pea seedlings in test solution, 6 days
Method: Roots of pea seedlings infested with an aphid population of mixed ages were placed directly into aqueous test solutions prepared from 10′000 DMSO stock solutions. The samples were assessed for mortality 6 days after placing seedlings into test solutions.

Spodoptera littoralis = assay: Activity against Spodoptera littoralis (Egyptian cotton leaf worm); conditions: foliar, 72 h, application rate 200 ppm, sprayed cotton leaf discs, L1 larvae, 3 days after infestation, read-out: control (mortality, anti-feeding effect or growth inhibition)
Method: Cotton leaf discs were placed onto agar in 24-well microtiter plates and sprayed with aqueous test solutions prepared from 10′000 ppm DMSO stock solutions. After drying the leaf discs were infested with five L1 larvae. The samples were assessed for mortality, anti-feeding effect, and growth inhibition in comparison to untreated samples 3 days after infestation. Control of Spodoptera littoralis by a test sample is given when at least one of the categories mortality, anti-feedant effect, and growth inhibition is higher than the untreated sample.

Chilo suppressalis = assay: Activity against Chilo suppressalis (striped rice stemborer); conditions: 144 h, application rate 200 ppm, artificial diet, L2 larvae, 6 days after infestation, read-out: control (mortality, anti-feeding effect or growth inhibition)
Method: 24-well microtiter plates with artificial diet were treated with aqueous test solutions prepared from 10′000 ppm DMSO stock solutions by pipetting. After drying, the plates were infested with L2 larvae (6-8 per well). The samples were assessed for mortality, anti-feeding effect, and growth inhibition in comparison to untreated samples 6 days after infestation. Control of Chilo suppressalis by a test sample is given when at least one of the categories mortality, anti-feedant effect, and growth inhibition is higher than the untreated sample.

Myzus persicae [4] = assay: Activity against Myzus persicae (green peach aphid), feeding/contact activity; conditions: foliar, 144 h, application rate 200 ppm, sprayed sunflower leaf discs, mixed ages, 6 days after infestation
Method: Sunflower leaf discs were placed onto agar in a 24-well microtiter plate and sprayed with aqueous test solutions prepared from 10′000 ppm DMSO stock solutions. After drying, the leaf discs were infested with an aphid population of mixed ages. The samples were assessed for mortality 6 days after infestation.

CCS(=O)(=O)c1cc(C2(C#N)CC2)cnc1-c1cc2ccc(=O)n(CC(F)(F)C(F)(F)F)c2cn1 [P3, 1-[5-ethylsulfonyl-6-[2-oxo-1-(2,2,3,3,3-pentafluoropropyl)-1,7-naphthyridin-6-yl]-3-pyridyl]cyclopropanecarbonitrile]
≥ 80%: percent effect (mortality or growth inhibition) at 200 ppm (Euschistus heros) | percent effect (mortality or growth inhibition) at 200 ppm (Plutella xylostella) | mortality at 200 ppm [1] | percent effect (mortality or growth inhibition) at 200 ppm (Diabrotica balteata) | mortality at 12.5 ppm [2] | mortality at 24 ppm (Myzus persicae [3]) | percent control (mortality, anti-feedant effect or growth inhibition) at 200 ppm (Spodoptera littoralis) | percent control (mortality, anti-feedant effect or growth inhibition) at 200 ppm (Chilo suppressalis) | mortality at 200 ppm (Myzus persicae [4])
